# From US10676440B2, “Crystalline forms of an NK-1 antagonist” (Helsinn Healthcare SA, priority 2014, dated 2020)
# Experiments:
# Format in all cases: physicochemical
# [1] = Moisture adsorption/desorption (DVS), hygroscopicity
# Method: Moisture Adsorption/Desorption data was collected on a DVS-1 (SMS Surface Measurements Systems) moisture balance system. The sorption/desorption isotherms were measured stepwise in a range of 0% RH to 90% RH at 25° C. A weight change of <0.002 mg/min was chosen as the criterion to switch to the next level of relative humidity (with a maximum equilibration time of 6 hours if the weight criterion was not met). The data were corrected for the initial moisture content of the samples so that the weight after drying the sample at 0% relative humidity was taken as the zero point. The hygroscopicity of a given substance was characterized, in accordance with the European Phamacopoeia (Technical Guide 1999), by the increase in mass when the relative humidity is raised from 0% RH to 90% RH, as defined below (where weight increase=x):
# Slightly hygroscopic: 0.2%≤x<2.0%
# Very hygroscopic: x≥15.0%
# Deliquescent: Sufficient liquid as adsorbed to form a liquid
# [2] = Gravimetric solubility of Form I in solvents
# Method: Solubility was determined gravimetrically. A weighted sample of Form I was suspended in a defined amount of solvent. After equilibration and solvent-liquid separation, the weight of the saturated liquid was determined. The solvent was then evaporated, the solid residue dried to dryness and weighed. The solubility is reported as weight of solid substance dissolved divided by the weight of the solution.
# [3] = Stability of ground and kneaded Form I by XRPD; conditions: ball milling 10 min
# Method: An untreated sample of Form I was ground by ball milling in a Retsch MM 200 grinder for 10 min at a frequency of 30 Hz. The sample was then analyzed by XRPD to determine its diffraction pattern. The stability of the ground sample was determined by comparing the diffraction pattern of the ground sample with that of the reference sample. […] In FIG. 26, the XRPD pattern for the Form I reference sample is shown in black and the pattern for the ground sample is shown in blue.
# An untreated sample of Form I was ground by ball milling in a Retsch MM 200 grinder for 10 min at a frequency of 30 Hz with a catalytic amount of water. The sample was then analyzed by XRPD to determine its diffraction pattern. The stability of the kneaded sample was determined by comparing the diffraction pattern of the kneaded sample with that of the reference sample. […] In FIG. 27, the XRPD pattern for the Form I reference sample is shown in black and the XRPD pattern for the kneaded sample is shown in red.
# [4] = Solid form stability of Form II (ambient storage, humidity, water suspension)
# Method: Form II was confirmed as a crystalline solid according to XRPD analysis. The XRPD pattern of Form II is shown in FIG. 17 and the peak data is given below in Table 7. […] The red pattern was recorded after storing Form II for 1 h and 20 min under ambient conditions.
# Thermogravimetry coupled to Fourier Transform (TGA-FT) measurements taken during the conversion show a loss of trifluoroethanol above 100° C.
# [5] = Approximate solubility in water at rt
structure (smiles),measurement,setting,value
"Cc1ccccc1-c1cc(N2CCN(C)CC2)ncc1N(C)C(=O)C(C)(C)c1cc(C(F)(F)F)cc(C(F)(F)F)c1 [Form I, 2-(3,5-bis(trifluoromethyl)phenyl)-N,2-dimethyl-N-(6-(4-methylpiperazin-1-yl)-4-(o-tolyl)pyridin-3-yl)propanamide]",Hygroscopicity (weight change 0 to 90%-RH),"[1]; 25° C., 0% RH to 90% RH",0.1%
same,Hygroscopicity classification,"[1]; 25° C., 0% RH to 90% RH, European Pharmacopoeia classes",non-hygroscopic
same,weight gain during the drying step and the first adsorption segment,"[1]; first cycle, likely due to electrostatic charges",about 0.3%
same,weight loss in the second cycle,[1]; second cycle,0.1%
same,Solubility (% m/m),"[2]; 25° C., 1-Butanol",>11.6 % m/m
same,Solubility (% m/m),"[2]; 25° C., 2-Butanone",>11.2 % m/m
same,Solubility (% m/m),"[2]; 25° C., Acetone",>11.1 % m/m
same,Solubility (% m/m),"[2]; 25° C., Acetonitrile",9 % m/m
same,Solubility (% m/m),"[2]; 25° C., Cyclohexane",4.2 % m/m
same,Solubility (% m/m),"[2]; 25° C., Dichloroethane",>7.0 % m/m
same,Solubility (% m/m),"[2]; 25° C., Dioxane",>9.0 % m/m
same,Solubility (% m/m),"[2]; 25° C., Ethanol",>11.5 % m/m
same,Solubility (% m/m),"[2]; 25° C., Heptane",1.2 % m/m
same,Solubility (% m/m),"[2]; 25° C., Isopropyl Acetate",22.2 % m/m
same,Solubility (% m/m),"[2]; 25° C., Methanol",>11.9 % m/m
same,Solubility (% m/m),"[2]; 25° C., N,N-Dimethylformamide",>9.9 % m/m
same,Solubility (% m/m),"[2]; 25° C., Tetrahydrofuran",>9.9 % m/m
same,Solubility (% m/m),"[2]; 25° C., Toluene",>10.8 % m/m
same,Solubility (% m/m),"[2]; 25° C., Trifluoroethanol",>7.5 % m/m
same,Solubility (% m/m),"[2]; 25° C., Water",<0.1 % m/m
same,Solubility (% m/m),"[2]; 25° C., Water/Acetone 1:2",7.0 % m/m
same,Solubility (% m/m),"[2]; 25° C., Water/Acetone 2:1",0.2 % m/m
same,Solubility (% m/m),"[2]; 25° C., Water/Acetonitrile 1:2",6.2 % m/m
same,Solubility (% m/m),"[2]; 25° C., Water/Acetonitrile 2:1",0.5 % m/m
same,Solubility (% m/m),"[2]; 25° C., Water/Dioxane 1:2",4.9 % m/m
same,Solubility (% m/m),"[2]; 25° C., Water/Dioxane 2:1",0.1 % m/m
same,Solubility (% m/m),"[2]; 25° C., Water/Ethanol 1:2",3.1 % m/m
same,Solubility (% m/m),"[2]; 25° C., Water/Ethanol 2:1",0.1 % m/m
same,Solubility (% m/m),"[2]; 25° C., Water/Methanol 1:2",1.0 % m/m
same,Solubility (% m/m),"[2]; 25° C., Water/Methanol 2:1",0.2 % m/m
same,Solubility (% m/m),"[2]; 25° C., Xylene",18.4 % m/m
same,Solubility (% m/m),"[2]; 60° C., 1-Butanol",29.9 % m/m
same,Solubility (% m/m),"[2]; 60° C., 2-Butanone",>52.6 % m/m
same,Solubility (% m/m),"[2]; 60° C., 2-Propanol",26.2 % m/m
same,Solubility (% m/m),"[2]; 60° C., Acetone",>53.3 % m/m
same,Solubility (% m/m),"[2]; 60° C., Acetonitrile",14.4 % m/m
same,Solubility (% m/m),"[2]; 60° C., Cyclohexane",16.0 % m/m
same,Solubility (% m/m),"[2]; 60° C., Dichloroethane",34.7 % m/m
same,Solubility (% m/m),"[2]; 60° C., Dioxane",>41.6 % m/m
same,Solubility (% m/m),"[2]; 60° C., Ethanol",33.1 % m/m
same,Solubility (% m/m),"[2]; 60° C., Ethyl Acetate",45.9 % m/m
same,Solubility (% m/m),"[2]; 60° C., Heptane",3.0 % m/m
same,Solubility (% m/m),"[2]; 60° C., Isopropyl Acetate",>35.0 % m/m
same,Solubility (% m/m),"[2]; 60° C., Methanol",48.4 % m/m
same,Solubility (% m/m),"[2]; 60° C., N,N-Dimethylformamide",40.7 % m/m
same,Solubility (% m/m),"[2]; 60° C., Tetrahydrofuran",>50.4 % m/m
same,Solubility (% m/m),"[2]; 60° C., Toluene",48.8 % m/m
same,Solubility (% m/m),"[2]; 60° C., Trifluoroethanol",>39.1 % m/m
same,Solubility (% m/m),"[2]; 60° C., Water",<0.1 % m/m
same,Solubility (% m/m),"[2]; 60° C., Water/Acetone 1:2",11.7 % m/m
same,Solubility (% m/m),"[2]; 60° C., Water/Acetone 2:1",<0.1 % m/m
same,Solubility (% m/m),"[2]; 60° C., Water/Acetonitrile 1:2",6.4 % m/m
same,Solubility (% m/m),"[2]; 60° C., Water/Acetonitrile 2:1",<0.1 % m/m
same,Solubility (% m/m),"[2]; 60° C., Water/Dioxane 1:2",21.1 % m/m
same,Solubility (% m/m),"[2]; 60° C., Water/Dioxane 2:1",<0.1 % m/m
same,Solubility (% m/m),"[2]; 60° C., Water/Ethanol 1:2",5.5 % m/m
same,Solubility (% m/m),"[2]; 60° C., Water/Ethanol 2:1",<0.1 % m/m
same,Solubility (% m/m),"[2]; 60° C., Water/Methanol 1:2",0.4 % m/m
same,Solubility (% m/m),"[2]; 60° C., Water/Methanol 2:1",<0.1 % m/m
same,Solubility (% m/m),"[2]; 60° C., Xylene",>35.0 % m/m
same,stability of the ground sample (XRPD vs reference),[3]; 30 Hz,loss of crystallinity
same,stability of the kneaded sample (XRPD vs reference),[3]; 30 Hz with a catalytic amount of water,increased degree of crystallinity
"Cc1ccccc1-c1cc(N2CCN(C)CC2)ncc1N(C)C(=O)C(C)(C)c1cc(C(F)(F)F)cc(C(F)(F)F)c1 [Form II, 2-(3,5-bis(trifluoromethyl)phenyl)-N,2-dimethyl-N-(6-(4-methylpiperazin-1-yl)-4-(o-tolyl)pyridin-3-yl)propanamide]",conversion at 80% relative humidity,[4]; 80% relative humidity,convert to Form I
same,stability under ambient conditions,"[4]; ambient conditions, XRPD",unstable under ambient conditions and converts to Form I
same,conversion after storing under ambient conditions,"[4]; stored 1 h and 20 min under ambient conditions, XRPD",partial conversion to Form I
same,conversion upon suspension equilibration in water,[4]; suspension equilibration in water,convert to Form I
"Cc1ccccc1-c1cc(N2CCN(C)CC2)ncc1N(C)C(=O)C(C)(C)c1cc(C(F)(F)F)cc(C(F)(F)F)c1 [Form III, 2-(3,5-bis(trifluoromethyl)phenyl)-N,2-dimethyl-N-(6-(4-methylpiperazin-1-yl)-4-(o-tolyl)pyridin-3-yl)propanamide]",solubility,[5],< 1000 µg/mL
